Experiments:
FN = assay: IHC for FN in ligated carotid artery; type: in vivo, FVB/NJ (FVB) mice; conditions: for FN IHC intensity in intima-media area: mean ± SEM
Description: (§1) Animals were anesthetized with isoflurane inhalation. The left common carotid artery was exposed, dissected free from the surrounding connective tissue and completely ligated with 6-0 silk suture just proximal to the carotid bifurcation. […] 4–10 mice were included in each experimental group.
(§2) Paraffin sections selected from the first mm of the carotid artery in each group were used for immunohistochemistry (IHC). […] Sections were then incubated with appropriate biotinylated secondary antibodies followed by avidin-biotin immunoperoxidase system (Vector Laboratories, Burlingame, CA). Liquid DAB Substrate Chromogen system (Dako, Carpinteria, CA) was used for detection.
(§3) Quantitative IHC analysis was performed on digital images captured with a 20x objective by using Image-Pro Plus software. Data from 3–6 mice for each group were averaged, and the average values ± SEM were shown. For FN, collagen type I, SM-MHC and SM α-actin, color digital images were transformed into gray scale, and the sum of the optical densities from the intima+media area in each section was determined. […] The percent of positive cells is reported as the proliferation index. […] The intima+media region was traced manually. The percent of positively stained area in intima+media to the total traced area was assessed.
(§4) For in vivo experiments, the data are shown as the mean ± SEM. For in vitro experiments, the data shown are the means ± SD of a representative experiment, at least 3 independent experiments were performed. One-way ANOVA with post-hoc testing were used for data analysis with GraphPad Prism software (GraphPad, San Diego, CA). If normality test failed, nonparametric Kruskal-Wallis test followed by Dunn's post-hoc test were used. P > 0.05 was not considered significant.

ICAM-1 = ICAM-1 IHC in ligated carotid artery; type: in vivo, FVB/NJ (FVB) mice; conditions: 7 days after ligation; percent of positively stained area; mean ± SEM; R1R2 n = 7, control peptide n = 8
Description: as §1, §2, §3
(§5) For in vivo experiments, the data are shown as the mean ± SEM. […]

A7r5 SMCs [1] = assay: SMC migration, scrape wound assay; type: cell-based
Description: (§6) Human umbilical vein endothelial cells (HUVECs) and A7r5 SMCs were provided by Resource Center (SB3, NSC 100-2325-B-080-001), National Research Program for Biopharmaceuticals (Hsinchu, Taiwan). HUVECs were maintained in M199 (Life Technologies, Carlsbad, CA) with 25U/ml heparin (Sigma-Aldrich, St. Louis, MO), 10% fetal bovine serum (FBS) and endothelial cell growth supplement (ECGS; Millipore, Billerica, MA). A7r5 SMCs were grown in Dulbecco’s Modified Eagle’s Medium (DMEM) containing high glucose, supplemented with 10% fetal bovine serum. Human U937 cells were grown in RPMI1640 with 10% FBS.
A scrape wound assay was used to assess the effect of R1R2 and scrambled peptides on SMC migration as described. Briefly, A7r5 SMCs were grown until 90% confluent, followed by serum starvation and treatment with R1R2 and scrambled peptides for 36 hours. Several scrape wounds were then performed across the dish with a sterile yellow pipet tip. We initiated the experiment with treatment of cells with 10 ng/ml PDGF-BB. Photographs of the wound area were taken immediately after PDGF-BB addition (0 hour) and 30 hours postwounding with an Olympus CKX-41 microscope connected to a camera. At least three photographs were taken per group at each time point. Wound areas were determined using Image-Pro Software (Media Cybernetics, MD). Measurement of migration was determined by subtracting the cell-free area 30 hours after PDGF-BB addition from the cell-free area in the beginning of scrape wounds.
For in vivo experiments, the data are shown as the mean ± SEM. For in vitro experiments, the data shown are the means ± SD of a representative experiment, at least 3 independent experiments were performed. […]
Fig 6 R1R2 reduces SMC proliferation and migration. […] Cells were counted at the indicated time in the figure (n = 5). […] (C) Quantitation of SMC migration in the scratch wound healing assay was performed by subtracting the cell-free area 30 hours after PDGF-BB stimulation from the cell-free area in the beginning (n = 5). * indicates p<0.05 and ** p< 0.01.

collagen = assay: Hydroxyproline assay of carotid collagen content; type: in vivo, FVB/NJ (FVB) mice; conditions: 14 days post-ligation; three carotid arteries pooled per group; colorimetric chloramine T; mean ± SEM, n = 3
Description: as §1
After reconstituting with water, samples were measured using a colorimetric chloramine T assay. Three independent experiments were performed for statistical analysis.
as §4

Ki-67 (+) cells = assay: Ki-67 IHC, cell proliferation in carotid intima and media; type: in vivo, FVB/NJ (FVB) mice; conditions: 7 days post-surgery, mean ± SEM, n = 5 each
Description: as §1, §2, §3, §5

VCAM-1 = VCAM-1 IHC in ligated carotid artery; type: in vivo, FVB/NJ (FVB) mice; conditions: 7 days after ligation; percent of positively stained area; mean ± SEM; R1R2 n = 7, control peptide n = 9
Description: as §1, §2, §3, §5

smooth muscle cell = conditions: in vitro; ref [29],[30],[33]; cited from earlier work
From the text: (§7) In order to assess whether inhibiting collagen type I deposition reduces vascular remodeling in an in vivo mouse model, we used the collagen inhibitory peptide R1R2 for this study. The R1R2 peptide is derived from two repeat domains of the bacterial adhesin SFS, and is highly homologous to collagen. […] It is likely that R1R2 blocks collagen type I fibril formation around cells by binding to the collagen-binding domain of FN. To characterize the effects of our synth ...

collagen type I = conditions: in vitro; ref [29],[30],[33]; cited from earlier work
From the text: as §7

collagen-FN binding = conditions: in vitro; ref [29],[30],[33]; cited from earlier work
From the text: as §7

A7r5 SMCs [2] = assay: A7r5 SMC growth study; type: cell-based
Description: as §6
A7r5 cells and HUVECs were growth-arrested and then stimulated with 10% FBS or 10 ng/ml TNF-αovernight after serum starvation as indicated in the figure legend. Briefly, trypan blue-excluding cells were counted with a hemocytometer, and data were analyzed using GraphPad Prism Software (San Diego, CA) as in previous studies. A second observer performed a similar analysis to verify the initial findings.
as §4
Fig 6 R1R2 reduces SMC proliferation and migration. (A) A7r5 SMC growth study over 96 hours. After serum starvation and treatment with R1R2 or scrambled peptides for 36 hours, cells were stimulated with 10% FBS over 96 hours. Cells were counted at the indicated time in the figure (n = 5). (B) A7r5 SMCs were pretreated with R1R2 or scramble peptide for 36 hours. […] (C) Quantitation of SMC migration in the scratch wound healing assay was performed by subtracting the cell-free area 30 hours after PDGF-BB stimulation from the cell-free area in the beginning (n = 5). * indicates p<0.05 and ** p< 0.01.

[3] = system: smooth muscle α-actin (SMAA); assay: IHC for smooth muscle α-actin in ligated carotid artery; type: in vivo, FVB/NJ (FVB) mice; conditions: 7 days post-ligation; mean ± SEM; scrambled n = 6, R1R2 n = 5 (sham 0.232 ± 0.011, n = 5)
Description: as §1, §2, §3, §5

## GLNGENQKEPEQGERGEAGPPLSGLSGNNQGRPSLPGLNGENQKEPEQGERGEAGPP [R1R2]
FN; 7 and 14 days after ligation, R1R2 vs scrambled peptide, in words
  effect on FN intensity: no significant decrease of FN intensity
FN; 7 days after ligation, R1R2 n = 6, scrambled n = 6
  FN IHC intensity in intima-media area: 0.153 ± 0.012
FN; 14 days after ligation, R1R2 n = 7, scrambled n = 7
  FN IHC intensity in intima-media area: 0.309 ± 0.005
ICAM-1
  ICAM-1 (+) area in intima-media: 11.58 ± 2.387%
A7r5 SMCs [1]; 30 hours post PDGF-stimulation, versus scrambled peptide, in words
  effect on SMC migration (wound healing images): cells migrated more slowly
A7r5 SMCs [1]; A7r5 SMCs, 36 hours peptide pretreatment, 10 ng/ml PDGF-BB, 30 hours, mean ± SD, n = 3
  SMC migration (cell-free area at 0 h minus cell-free area at 30 hours): 130149 ± 53295
collagen
  collagen content, hydroxyproline assay: 1.522 ± 0.077
Ki-67 (+) cells
  proliferation index (Ki-67 (+) cells/total cells): 11.20 ± 0.62%
VCAM-1
  VCAM-1 (+) area in intima-media: 10.36 ± 1.802%
Smooth muscle cell
  effect on smooth muscle cell migration: known to inhibit collagen-FN binding, collagen type I deposition, and smooth muscle cell migration in vitro
Collagen type I
  effect on collagen type I deposition: known to inhibit collagen-FN binding, collagen type I deposition
collagen-FN binding
  effect on collagen-FN binding: known to inhibit collagen-FN binding
A7r5 SMCs [2]; 48–96 hours, in comparison with scrambled peptide, in words
  effect on A7r5 SMC growth: significantly inhibited A7r5 SMC growth after 48–96 hours
A7r5 SMCs [2]; 48hr, 10% FBS after serum starvation and 36 hours peptide treatment, hemocytometer, trypan blue, mean ± SD, n = 5
  A7r5 SMC growth, cell number: 1.5 ± 0.224 x 10^5
[3]
  SMAA IHC staining in intima-media area: 0.214 ± 0.004
